Experimental data published in patent publication US7407775B2, “Method for identifying Listeria monocytogenes and culture medium” (Biomerieux S.A., priority 2000, dated 2008).

How the values were obtained:
Type in all cases: cell-based
Settings in all cases: 37° C., substrate 250 mg/l
[1] = test system: Listeria monocytogenes 092; assay: Experiment 1: esterase substrates, same chromogenic marker, fatty acids of different chain lengths; set-up: key to I (intensity of the color): —: the symbol “-” corresponds to the absence of color or intensity; 0 corresponds to no activity; 0.1 corresponds to a trace of color; 0.5 corresponds to very pale coloration; 1 corresponds to clear but low-intensity coloration; 1.5 corresponds to a degree of coloration intermediate between scores 1 and 2; 2 corresponds to clear coloration of moderate intensity; 2.5 corresponds to a degree of coloration intermediate between scores 2 and 3; 3 corresponds to intense coloration; 3.5 corresponds to a degree of coloration intermediate between scores 3 and 4; 4 corresponds to very intense coloration
Procedure: (§1) A stock solution of each substrate at a concentration of 40 g/l was made up in a mixture of 40% Dimethylsulfoxide and 60% Polyoxyethylenesorbitan Monolaurate (Tween 20). An appropriate volume was added to three Columbia-type media while cooling to give a final substrate concentration of 250 mg/l. These dishes were divided into three areas and then each area was inoculated with a suspension (density=0.5 McFarland) of microorganisms taken from either the Applicant's own collection or the ATCC. The dishes were incubated for 48 hours at 37° C. The colonies which grew were examined by eye after 24 and 48 hours of incubation. Both the color and the intensity of the color of the colonies were recorded.
(§2) In Table 1 above, as in the following Tables, C represents the color of the colonies after incubation, I represents the intensity of the color, and the symbol “-” corresponds to the absence of color or intensity; finally, IT defines the incubation time. It should be noted that the intensity of the color is scored on an arbitrary scale but one which is consistent for all the biological specimens and media tested. This scale is valid for this experiment as well as all those that follow. It can be defined in the following way: • 0 corresponds to no activity, • 0.1 corresponds to a trace of color, • 0.5 corresponds to very pale coloration, • 1 corresponds to clear but low-intensity coloration, • 1.5 corresponds to a degree of coloration intermediate between scores 1 and 2, • 2 corresponds to clear coloration of moderate intensity, • 2.5 corresponds to a degree of coloration intermediate between scores 2 and 3, • 3 corresponds to intense coloration, • 3.5 corresponds to a degree of coloration intermediate between scores 3 and 4, • 4 corresponds to very intense coloration.

[2] = test system: Listeria monocytogenes ATCC 19117; assay: as above; set-up: key to I (intensity of the color): —: the symbol “-” corresponds to the absence of color or intensity; 0 corresponds to no activity; 0.1 corresponds to a trace of color; 0.5 corresponds to very pale coloration; 1 corresponds to clear but low-intensity coloration; 1.5 corresponds to a degree of coloration intermediate between scores 1 and 2; 2 corresponds to clear coloration of moderate intensity; 2.5 corresponds to a degree of coloration intermediate between scores 2 and 3; 3 corresponds to intense coloration; 3.5 corresponds to a degree of coloration intermediate between scores 3 and 4; 4 corresponds to very intense coloration
Procedure: as §1, §2

[3] = test system: Listeria monocytogenes ATCC 19115; assay: as above; set-up: key to I (intensity of the color): —: the symbol “-” corresponds to the absence of color or intensity; 0 corresponds to no activity; 0.1 corresponds to a trace of color; 0.5 corresponds to very pale coloration; 1 corresponds to clear but low-intensity coloration; 1.5 corresponds to a degree of coloration intermediate between scores 1 and 2; 2 corresponds to clear coloration of moderate intensity; 2.5 corresponds to a degree of coloration intermediate between scores 2 and 3; 3 corresponds to intense coloration; 3.5 corresponds to a degree of coloration intermediate between scores 3 and 4; 4 corresponds to very intense coloration
Procedure: as §1, §2

[4] = test system: Listeria ivanovii 018; assay: Experiment 2: octanoate esterase substrates with different Indoxyl-based chromogenic markers; set-up: key: —: the symbol “-” corresponds to the absence of color or intensity; 0 corresponds to no activity; 0.1 corresponds to a trace of color; 0.5 corresponds to very pale coloration; 1 corresponds to clear but low-intensity coloration; 1.5 corresponds to a degree of coloration intermediate between scores 1 and 2; 2 corresponds to clear coloration of moderate intensity; 2.5 corresponds to a degree of coloration intermediate between scores 2 and 3; 3 corresponds to intense coloration; 3.5 corresponds to a degree of coloration intermediate between scores 3 and 4; 4 corresponds to very intense coloration
Procedure: as §2
as §1, with “and 60% Tween 20. An appropriate” for “and 60% Polyoxyethylenesorbitan Monolaurate (Tween 20). An appropriate”, “added to four Columbia-type media” for “added to three Columbia-type media”

[5] = test system: Listeria innocua 171; assay: as above; set-up: key: —: the symbol “-” corresponds to the absence of color or intensity; 0 corresponds to no activity; 0.1 corresponds to a trace of color; 0.5 corresponds to very pale coloration; 1 corresponds to clear but low-intensity coloration; 1.5 corresponds to a degree of coloration intermediate between scores 1 and 2; 2 corresponds to clear coloration of moderate intensity; 2.5 corresponds to a degree of coloration intermediate between scores 2 and 3; 3 corresponds to intense coloration; 3.5 corresponds to a degree of coloration intermediate between scores 3 and 4; 4 corresponds to very intense coloration
Procedure: as §2
as §1, with “and 60% Tween 20. An appropriate” for “and 60% Polyoxyethylenesorbitan Monolaurate (Tween 20). An appropriate”, “added to four Columbia-type media” for “added to three Columbia-type media”

[6] = test system: Listeria ivanovii 025; assay: as above; set-up: key: —: the symbol “-” corresponds to the absence of color or intensity; 0 corresponds to no activity; 0.1 corresponds to a trace of color; 0.5 corresponds to very pale coloration; 1 corresponds to clear but low-intensity coloration; 1.5 corresponds to a degree of coloration intermediate between scores 1 and 2; 2 corresponds to clear coloration of moderate intensity; 2.5 corresponds to a degree of coloration intermediate between scores 2 and 3; 3 corresponds to intense coloration; 3.5 corresponds to a degree of coloration intermediate between scores 3 and 4; 4 corresponds to very intense coloration
Procedure: as §2
as §1, with “and 60% Tween 20. An appropriate” for “and 60% Polyoxyethylenesorbitan Monolaurate (Tween 20). An appropriate”, “added to four Columbia-type media” for “added to three Columbia-type media”

SMILES | C (color of the colonies) ([1]; IT 24 h) | C (color of the colonies) ([1]; IT 48 h) | C (color of the colonies) ([2]; IT 24 h) | C (color of the colonies) ([2]; IT 48 h) | C (color of the colonies) ([3]; IT 24 h) | C (color of the colonies) ([5]; IT 48 h) | I (intensity of the color) ([1]; IT 24 h) | I (intensity of the color) ([1]; IT 48 h) | I (intensity of the color) ([2]; IT 24 h) | I (intensity of the color) ([2]; IT 48 h) | C (color of the colonies) ([4]; IT 24 h) | I (intensity of the color) ([4]; IT 24 h) | C (color of the colonies) ([4]; IT 48 h) | I (intensity of the color) ([4]; IT 48 h) | I (intensity of the color) ([5]; IT 24 h) | I (intensity of the color) ([5]; IT 48 h) | C (color of the colonies) ([6]; IT 24 h) | I (intensity of the color) ([6]; IT 24 h) | C (color of the colonies) ([6]; IT 48 h) | I (intensity of the color) ([6]; IT 48 h) | further results
CCCCCCCCC(=O)Oc1c[nH]c2ccc(Br)cc12 [Blue-C9, 5-Bromo-3-indolyl nonanoate] | gray | gray | gray | gray | gray |  | 1 | 2 | 1 | 1.5 |  |  |  |  |  |  |  |  |  |  | I (intensity of the color) ([3]; IT 24 h): 1; C (color of the colonies) ([3]; IT 48 h): gray; I (intensity of the color) ([3]; IT 48 h): 2
CCCCCCCCCC(=O)Oc1c[nH]c2ccc(Br)cc12 [Blue-C10, 5-Bromo-3-indolyl decanoate] | gray | gray | gray | gray | gray |  | 1 | 2 | 0.5 | 1 |  |  |  |  |  |  |  |  |  |  | I (intensity of the color) ([3]; IT 24 h): 0.5; C (color of the colonies) ([3]; IT 48 h): gray; I (intensity of the color) ([3]; IT 48 h): 1
CCCCCCCC(=O)Oc1c[nH]c2ccc(Br)c(Cl)c12 [X-C8, 5-Bromo-4-chloro-3-indolyl octanoate] |  |  |  |  |  | turquoise |  |  |  |  | — | — | — | — | — | 0.3 | — | — | — | — | 

Second part, led by results:

C (color of the colonies) ([1]; IT 24 h) | C (color of the colonies) ([1]; IT 48 h) | C (color of the colonies) ([2]; IT 24 h) | C (color of the colonies) ([2]; IT 48 h) | C (color of the colonies) ([3]; IT 24 h) | C (color of the colonies) ([5]; IT 48 h) | SMILES | I (intensity of the color) ([1]; IT 24 h) | I (intensity of the color) ([1]; IT 48 h) | I (intensity of the color) ([2]; IT 24 h) | I (intensity of the color) ([2]; IT 48 h) | C (color of the colonies) ([4]; IT 24 h) | I (intensity of the color) ([4]; IT 24 h) | C (color of the colonies) ([4]; IT 48 h) | I (intensity of the color) ([4]; IT 48 h) | I (intensity of the color) ([5]; IT 24 h) | I (intensity of the color) ([5]; IT 48 h) | C (color of the colonies) ([6]; IT 24 h) | I (intensity of the color) ([6]; IT 24 h) | C (color of the colonies) ([6]; IT 48 h) | I (intensity of the color) ([6]; IT 48 h) | further results
gray | gray | gray | gray | gray | gray | CCCCCCCC(=O)Oc1c[nH]c2ccc(Br)cc12 [Blue-C8, 5-Bromo-3-indolyl octanoate] | 1.5 | 2.5 | 1 | 2 | — | — | — | — | — | 0.3 | — | — | — | — | I (intensity of the color) ([3]; IT 24 h): 1; C (color of the colonies) ([3]; IT 48 h): gray; I (intensity of the color) ([3]; IT 48 h): 2; C (color of the colonies) ([5]; IT 24 h): —
 |  |  |  |  | purple | CCCCCCCC(=O)Oc1c[nH]c2cc(Cl)c(Br)cc12 [Magenta-C8, 5-Bromo-6-chloro-3-indolyl octanoate] |  |  |  |  | — | — | — | — | 0.5 | 3 | — | — | — | — | C (color of the colonies) ([5]; IT 24 h): purple
 |  |  |  |  | pink | CCCCCCCC(=O)Oc1c[nH]c2cc(Cl)ccc12 [Pink-C8, 6-Chloro-3-indolyl octanoate] |  |  |  |  | — | — | — | — | — | 0.3 | — | — | — | — | C (color of the colonies) ([5]; IT 24 h): —
